Experimental data reported in PubChem BioAssay AID1645865 (Buhrlage Lab, Dana-Farber Cancer Institute and Novartis …, 2021).
Activity calls are given as the source filed them.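 How the source made its calls: active means maximal inhibition of the USP30 enzyme reaching 30% or more across the dose series; inactive means the rest.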

target: Ubiquitin carboxyl-terminal hydrolase 30 (Homo sapiens) (UniProt Q70CQ3); test: ubiquitin-specific protease 30 DUB inhibitors, concentration-effect, biochemical, validation of primary actives (AID 1645865); details: purified USP30, Ub-rhodamine cleavage, fluorescence, 2 h
Sequence (Q70CQ3 whole entry, looked up): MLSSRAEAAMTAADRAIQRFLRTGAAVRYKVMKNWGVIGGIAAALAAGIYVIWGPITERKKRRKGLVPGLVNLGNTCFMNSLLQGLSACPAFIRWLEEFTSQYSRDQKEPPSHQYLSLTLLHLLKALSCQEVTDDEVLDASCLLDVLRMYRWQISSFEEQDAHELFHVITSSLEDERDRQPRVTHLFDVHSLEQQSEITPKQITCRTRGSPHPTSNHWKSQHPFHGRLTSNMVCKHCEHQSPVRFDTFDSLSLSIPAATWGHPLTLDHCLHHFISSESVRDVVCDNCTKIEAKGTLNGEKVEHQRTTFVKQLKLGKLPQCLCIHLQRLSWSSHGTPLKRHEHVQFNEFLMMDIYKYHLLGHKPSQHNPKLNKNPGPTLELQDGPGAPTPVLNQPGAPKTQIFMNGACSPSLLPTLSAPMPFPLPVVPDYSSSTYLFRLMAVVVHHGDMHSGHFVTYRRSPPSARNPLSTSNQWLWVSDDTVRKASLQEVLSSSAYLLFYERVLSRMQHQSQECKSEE

**Q.** With `Cc1nnc(C(=O)Nc2ccc(C(=O)NCc3ccccc3C)cc2)s1` as the molecule, how does the IC50 read?
**A.** 26.8 µM

**Q.** `O=C(c1ccco1)N1CCCC2(C1)Nc1cccnc1NC2=NC1CCCC1` (centres undefined) was tested. Which IC50 did it give?
**A.** > 50 µM (inactive)

**Q.** How did the IC50 turn out when `CCN(C(=O)c1cc2c(s1)-c1ccccc1OC2)c1ccccc1F` was run?
**A.** > 50 µM (inactive)

**Q.** For `O=C(CNc1nc(Nc2ccccc2F)nc(Nc2ccccc2F)n1)Nc1ccccc1`, which IC50 is on record?
**A.** 33.4 µM

**Q.** For `Cc1ccc(OCCn2c(=N)n(C(C)C)c3ccccc32)cc1`, which IC50 is on record?
**A.** 35.3 µM

**Q.** How did the IC50 turn out when `CC(OC(=O)c1ccc2c(c1)OCCO2)C(=O)NCC1CCCCC1` (centres undefined) was run?
**A.** 31.3 µM

**Q.** How did the IC50 turn out when `CC(C)(C)C(=O)C1C2C(=O)N(c3ccc4c(c3)OCO4)C(=O)C2C2c3ccccc3C=CN12` (centres undefined) was run?
**A.** > 50 µM (inactive)

**Q.** For `COc1cc(O)c2c(O)c3c(cc2c1)CC(C)OC3=O` (centres undefined), which IC50 is on record?
**A.** > 50 µM (inactive)

**Q.** How did the IC50 turn out when `O=C(NCc1ccc(F)cc1)C1CCCN(c2cnc3nccnc3c2)C1` (centres undefined) was run?
**A.** > 50 µM (inactive)

**Q.** How did the IC50 turn out when `CN(C(=O)CSc1nnc(-c2cc3ccccc3n2C)o1)c1ccccc1` was run?
**A.** > 50 µM (inactive)

**Q.** For `Cc1cc(Cl)ccc1NC(=O)c1cc(-c2cccnc2)n[nH]1`, which IC50 is on record?
**A.** > 50 µM (inactive)

**Q.** Which IC50 does the source give for `CCC(=O)N1c2ccccc2NC2=C(C(=O)CC(c3ccccc3OCc3ccccc3)C2)C1c1ccccc1` (centres undefined) here?
**A.** 2.39 µM

**Q.** For `COc1ccc(S(=O)(=O)N2CCc3ccccc32)cc1C(=O)Nc1ccc2[nH]c(=O)[nH]c2c1`, which IC50 is on record?
**A.** 2.36 µM

**Q.** How did the IC50 turn out when `Cn1ncc2c(=O)n(Cc3cccc(Cl)c3)cnc21` was run?
**A.** > 50 µM (inactive)

**Q.** `Cc1ccc(NC(=O)c2cc(-c3cccnc3)n(-c3ccccc3)n2)nc1` was tested. Which IC50 did it give?
**A.** 32.3 µM

**Q.** Which IC50 does the source give for `COc1cccc(NC(=O)CSc2nnc(-c3cc4cccc(OC)c4o3)n2C)c1` here?
**A.** 5.18 µM

**Q.** `CCOC(=O)c1cn(C2CC2)c2cc(N3CCNCC3)c([N+](=O)[O-])cc2c1=O` was tested. Which IC50 did it give?
**A.** > 50 µM (inactive)

**Q.** Which IC50 does the source give for `CC(C)c1ccc(/C=C/C(=O)N2CCc3ccccc3C2)cc1` here?
**A.** 21.7 µM

**Q.** With `COc1ccc(Cl)cc1N1C(=O)[C@H]2[C@@H](C1=O)[C@]1(C(=O)Nc3c(C)cc(C)cc31)N1CCC[C@@H]21` as the molecule, how does the IC50 read?
**A.** > 50 µM (inactive)

**Q.** With `Cc1ncncc1C(=O)N1CCCC(C)(c2ncc(Cc3cccc(F)c3)o2)C1` (centres undefined) as the molecule, how does the IC50 read?
**A.** > 50 µM (inactive)

**Q.** For `COCCNC(=O)c1ccc(-c2ccc(N3CCCCC3)nc2)cc1`, which IC50 is on record?
**A.** 22.9 µM

**Q.** For `O=C(CNS(=O)(=O)c1ccc(F)cc1)N1CCCC(c2nnc3ccccn23)C1` (centres undefined), which IC50 is on record?
**A.** > 50 µM (inactive)

**Q.** `COc1ccc(C(C)=O)cc1CC(=O)Nc1nc2ccccc2[nH]1` was tested. Which IC50 did it give?
**A.** > 50 µM (inactive)

**Q.** With `Cc1ccc2cccc(OCc3nnc(SCC(=O)c4ccc(Cl)cc4)n3C)c2n1` as the molecule, how does the IC50 read?
**A.** 2.63 µM

**Q.** With `Cc1ccc(Cl)cc1NC(=O)COC(=O)c1ccc2ccccc2n1` as the molecule, how does the IC50 read?
**A.** > 50 µM (inactive)

**Q.** Which IC50 does the source give for `CC(=O)c1cccc(NC(=O)c2ccc(CN(c3ccc(C)c(C)c3)S(C)(=O)=O)cc2)c1` here?
**A.** > 50 µM (inactive)

**Q.** Which IC50 does the source give for `O=C(Nc1ccccc1)c1cn(-c2cc(N3CCCC3)ncn2)cn1` here?
**A.** > 50 µM (inactive)

**Q.** Which IC50 does the source give for `COc1ccc(NC(=O)CC(=O)c2ccc([N+](=O)[O-])cc2)cc1S(=O)(=O)Nc1ccc(Cl)cc1` here?
**A.** 37.1 µM

**Q.** `Cc1ccccc1C(=O)c1ccc(C(=O)NC2CCCCCC2)[nH]1` was tested. Which IC50 did it give?
**A.** 2.41 µM

**Q.** For `O=C(CSc1nnc(CNC(=O)c2ccccc2F)o1)Nc1ccc(OC(F)(F)F)cc1`, which IC50 is on record?
**A.** 26.5 µM

**Q.** For `Cc1ccc(C)c(NS(=O)(=O)c2cc(-c3cnc(C4CC4)o3)ccc2C)c1`, which IC50 is on record?
**A.** > 50 µM (inactive)

**Q.** For `COc1ccccc1C(=O)N1CCC(S(=O)(=O)c2ccc(-c3ccco3)cc2)CC1`, which IC50 is on record?
**A.** > 50 µM (inactive)

**Q.** For `Cc1nc2cc(NC(=O)C3CN(C(=O)c4cnccn4)C3)ccc2s1`, which IC50 is on record?
**A.** > 50 µM (inactive)

**Q.** Which IC50 does the source give for `CN(C)c1cccc(C(=O)Nc2cc(-c3cccnc3)no2)c1` here?
**A.** 16.6 µM

**Q.** How did the IC50 turn out when `CCOc1ccc(CCNC(=O)c2ccc3c(c2)N(CC)C(=O)c2ccccc2S3)cc1OCC` was run?
**A.** > 50 µM (inactive)

**Q.** With `CC(CCc1ccccc1)NC(=O)Cn1c(=O)c2cccn2c2ccccc21` (centres undefined) as the molecule, how does the IC50 read?
**A.** 4.37 µM

**Q.** For `Cc1oc(C2CC2)cc1C(=O)N1CCC2(CC1)CC1(CO2)Nc2ccccc2-n2cccc21` (centres undefined), which IC50 is on record?
**A.** > 50 µM (inactive)

**Q.** Which IC50 does the source give for `Cc1ccc(CNC(=O)CCCn2c(=O)c3sccc3n(CC(=O)OCc3ccccc3)c2=O)cc1` here?
**A.** 2 µM

**Q.** Which IC50 does the source give for `COc1ccccc1/C=C/C(=O)Nc1nc2n(n1)C(c1ccc(Cl)cc1)CC(=O)N2` (centres undefined) here?
**A.** > 50 µM (inactive)
